Calls of active or inactive are those of the source.
How the values were obtained:
[1] = molecular target: T1, High affinity choline transporter 1 (Homo sapiens, UniProt Q9GZV3); assay: CHT inhibitors, dose response, cell-based, 5-point CRC, membrane potential dye (AID 504840); assay type: functional
T1 sequence (Q9GZV3 whole entry): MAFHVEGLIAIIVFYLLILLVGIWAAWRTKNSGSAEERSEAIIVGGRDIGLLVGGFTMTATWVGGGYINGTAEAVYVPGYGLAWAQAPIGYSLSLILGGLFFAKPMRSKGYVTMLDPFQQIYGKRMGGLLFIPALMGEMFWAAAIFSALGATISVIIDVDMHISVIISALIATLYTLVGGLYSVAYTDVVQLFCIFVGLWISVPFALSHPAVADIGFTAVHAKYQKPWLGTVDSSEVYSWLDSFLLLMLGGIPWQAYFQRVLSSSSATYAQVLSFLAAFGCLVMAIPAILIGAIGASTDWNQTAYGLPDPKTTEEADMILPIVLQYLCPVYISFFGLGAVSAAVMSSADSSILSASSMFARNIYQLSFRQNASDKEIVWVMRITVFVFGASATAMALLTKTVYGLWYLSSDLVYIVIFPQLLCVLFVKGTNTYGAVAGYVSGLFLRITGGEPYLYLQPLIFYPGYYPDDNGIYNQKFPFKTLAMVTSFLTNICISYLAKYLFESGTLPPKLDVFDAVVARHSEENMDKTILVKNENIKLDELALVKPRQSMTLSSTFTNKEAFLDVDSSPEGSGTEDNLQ

cells = assay type: functional
[2] = molecular target: T2, Calpain-2 catalytic subunit (Sus scrofa, UniProt P43367); assay: pig calpain II inhibitor potency, dose response, biochemical, fluorogenic peptide substrate (AID 1420); assay type: functional
T2 sequence (P43367 whole entry): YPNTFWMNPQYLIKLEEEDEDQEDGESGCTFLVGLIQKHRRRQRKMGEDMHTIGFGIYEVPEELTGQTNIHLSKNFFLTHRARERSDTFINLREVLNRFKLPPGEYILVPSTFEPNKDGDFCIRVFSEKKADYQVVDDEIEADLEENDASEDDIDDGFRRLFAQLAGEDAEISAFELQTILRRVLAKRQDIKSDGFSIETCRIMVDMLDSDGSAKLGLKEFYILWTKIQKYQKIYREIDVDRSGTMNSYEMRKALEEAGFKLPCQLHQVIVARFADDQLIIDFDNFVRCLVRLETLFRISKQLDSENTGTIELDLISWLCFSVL

[3] = NIH-3T3 fibroblast cytotoxicity, dose response, cytotoxicity control, cell-based, fluorescence, Alamar Blue, secondary assay (AID 2327); assay type: functional;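 also: NIH-3T3 mouse fibroblasts cultured with fluconazole at 8 µg/mL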
[4] = cytotoxicity toward NIH3T3 fibroblasts, dose response, counter-screen, cell-based, ATP luminescence, mouse fibroblasts (AID 2010); assay type: functional;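 also: cells exposed to compound for about 90 hours before reading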
[5] = inhibitors of intracellular T. cruzi replication, confirmation, NIH3T3 host cells, beta-gal luminescence (AID 2044); assay type: functional, cell-based;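 also: intracellular parasites grown in NIH/3T3 mouse fibroblasts as host cells; luminescent beta-galactosidase reporter signal from transgenic T. cruzi replicating inside host cells; inhibitors lower the luminescence signal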
[6] = C. albicans growth with fluconazole, confirmation, fluorescence, retest (AID 2467); assay type: functional, cell-based
[7] = molecular target: FAD-linked sulfhydryl oxidase ALR (Homo sapiens, UniProt P55789); assay: inhibitors of human ALR sulfhydryl oxidase, dose response, biochemical, H2O2 detection, luminescence, cherry-pick (AID 493248)
Sequence of FAD-linked sulfhydryl oxidase ALR (P55789 whole entry): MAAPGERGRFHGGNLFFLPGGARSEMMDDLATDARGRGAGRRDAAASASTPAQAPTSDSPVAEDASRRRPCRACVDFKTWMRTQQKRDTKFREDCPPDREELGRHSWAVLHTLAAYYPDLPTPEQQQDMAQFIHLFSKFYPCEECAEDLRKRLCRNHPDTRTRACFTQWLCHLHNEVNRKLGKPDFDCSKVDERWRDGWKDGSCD

[8] = molecular target: T3, Corticotropin-releasing factor receptor 2/Corticotropin-releasing factor-binding protein (Homo sapiens, UniProt P24387+Q13324); assay: activators of CRF receptor 2 with binding protein – uHTS hits, confirmation (AID 602473); assay type: functional; conditions: read-out: EC50_Mean
T3 sequence (Q13324 whole entry): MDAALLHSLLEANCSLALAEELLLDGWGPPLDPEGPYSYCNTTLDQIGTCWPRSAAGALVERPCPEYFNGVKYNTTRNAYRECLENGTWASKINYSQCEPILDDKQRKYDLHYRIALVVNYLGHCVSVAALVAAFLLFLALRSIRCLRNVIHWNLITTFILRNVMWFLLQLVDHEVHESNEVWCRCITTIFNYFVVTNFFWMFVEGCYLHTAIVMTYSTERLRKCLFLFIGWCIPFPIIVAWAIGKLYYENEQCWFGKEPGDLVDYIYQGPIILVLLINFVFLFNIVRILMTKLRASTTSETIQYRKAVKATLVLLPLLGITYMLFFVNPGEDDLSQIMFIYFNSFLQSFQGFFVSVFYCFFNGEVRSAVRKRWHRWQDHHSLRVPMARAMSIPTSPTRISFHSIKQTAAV
T3 sequence (P24387 whole entry): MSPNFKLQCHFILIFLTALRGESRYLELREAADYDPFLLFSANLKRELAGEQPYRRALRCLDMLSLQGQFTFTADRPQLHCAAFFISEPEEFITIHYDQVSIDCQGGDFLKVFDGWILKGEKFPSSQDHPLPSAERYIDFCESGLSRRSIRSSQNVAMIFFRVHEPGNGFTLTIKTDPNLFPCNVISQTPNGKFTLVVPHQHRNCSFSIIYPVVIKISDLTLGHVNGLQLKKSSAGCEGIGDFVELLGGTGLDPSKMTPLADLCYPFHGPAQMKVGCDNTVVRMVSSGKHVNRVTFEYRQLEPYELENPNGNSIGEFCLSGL

[9] = molecular target: T3, Corticotropin-releasing factor receptor 2/Corticotropin-releasing factor-binding protein; assay: Dose Response confirmation of uHTS hits for small molecule antagonists of the CRF-binding protein and CRF-R2 receptor complex.; assay type: functional; conditions: read-out: IC50_Mean
HEK293 = assay: inhibitors of LMP1-driven NF-kB reporter, dose response, cell-based, HEK293, luciferase, cherry-pick (AID 588343); assay type: functional, Homo sapiens; conditions: Homo sapiens, HEK293
BJ [10] = assay: cytotoxicity toward BJ-TERT fibroblasts, dose response, cell-based, RAS-independent, luminescence (AID 1933); assay type: functional; conditions: Homo sapiens
BJ [11] = assay: cells; assay type: functional, cell-based; conditions: Homo sapiens
[12] = cytotoxicity toward DRD oncogenic fibroblasts, dose response, cell-based, non-viral oncogenic, luminescence (AID 1934); assay type: functional; conditions: Homo sapiens
BJ [13] = assay: cytotoxicity toward BJ-TERT-LT-ST fibroblasts, dose response, cell-based, RAS-independent, luminescence (AID 1935); assay type: functional; conditions: Homo sapiens;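 also: BJ fibroblasts immortalized with TERT plus LT and ST oncogenes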
[14] = molecular target: T4, Heat shock factor protein 1 (Mus musculus, UniProt P38532); assay: HSF1 potentiators in luciferase reporter cells, confirmation, cell-based, NIH3T3, luminescence, dose retest (AID 435004); assay type: functional;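 also: stress induced by proteasome inhibitor MG132 added 30 min after compound; luciferase reporter driven by HSF1 response element in NIH3T3 cells; actives raise luminescence as potentiators of the MG132 stress response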
T4 sequence (P38532 whole entry): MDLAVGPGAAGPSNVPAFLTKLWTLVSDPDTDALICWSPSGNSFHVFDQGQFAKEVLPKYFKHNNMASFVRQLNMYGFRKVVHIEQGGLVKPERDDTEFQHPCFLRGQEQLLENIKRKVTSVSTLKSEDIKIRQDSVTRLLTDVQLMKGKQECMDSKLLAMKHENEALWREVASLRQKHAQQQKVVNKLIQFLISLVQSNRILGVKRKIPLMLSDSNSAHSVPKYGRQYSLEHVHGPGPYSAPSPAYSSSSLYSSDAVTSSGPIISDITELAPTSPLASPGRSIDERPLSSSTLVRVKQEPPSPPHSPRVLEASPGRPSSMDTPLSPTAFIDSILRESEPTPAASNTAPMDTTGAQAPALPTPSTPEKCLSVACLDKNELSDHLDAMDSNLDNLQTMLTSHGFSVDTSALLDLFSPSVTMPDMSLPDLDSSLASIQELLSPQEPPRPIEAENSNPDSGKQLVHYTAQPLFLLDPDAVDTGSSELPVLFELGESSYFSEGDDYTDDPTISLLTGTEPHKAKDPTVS

[15] = Luminescence Cell-Based Dose Confirmation HTS to Identify Inhibitors of Platelet Dense Granule Release. [Related pubchem assays: 1663 (Primary HTS), 1678 (Summary of Project)]; assay type: functional
[16] = molecular target: Luciferin 4-monooxygenase (Photinus pyralis, UniProt P08659); assay: firefly luciferase enzyme inhibitors, dose response, biochemical, luminescence (AID 1891)
Sequence of Luciferin 4-monooxygenase (P08659 whole entry): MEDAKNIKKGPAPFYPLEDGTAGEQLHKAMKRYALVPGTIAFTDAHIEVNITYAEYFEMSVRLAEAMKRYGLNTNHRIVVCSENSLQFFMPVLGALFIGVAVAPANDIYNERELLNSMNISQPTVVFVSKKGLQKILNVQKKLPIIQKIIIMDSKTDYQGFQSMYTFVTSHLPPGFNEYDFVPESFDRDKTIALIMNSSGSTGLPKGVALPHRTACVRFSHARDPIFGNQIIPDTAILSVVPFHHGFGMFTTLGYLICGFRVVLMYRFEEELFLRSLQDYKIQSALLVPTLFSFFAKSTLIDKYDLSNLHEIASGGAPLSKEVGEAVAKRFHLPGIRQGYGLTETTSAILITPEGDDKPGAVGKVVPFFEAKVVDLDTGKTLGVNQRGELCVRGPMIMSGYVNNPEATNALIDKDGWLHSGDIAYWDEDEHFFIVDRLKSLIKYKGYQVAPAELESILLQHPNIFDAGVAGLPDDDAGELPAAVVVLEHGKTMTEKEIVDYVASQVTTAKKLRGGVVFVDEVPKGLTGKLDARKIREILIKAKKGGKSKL

[17] = molecular target: T5, Rac GTPase-activating protein 1 (Homo sapiens, UniProt Q9H0H5); assay: MgcRacGAP GTPase-activating activity inhibitors, confirmation, biochemical, ADP Hunter fluorescence, primary and confirmatory (AID 624330); assay type: functional
T5 sequence (Q9H0H5 whole entry): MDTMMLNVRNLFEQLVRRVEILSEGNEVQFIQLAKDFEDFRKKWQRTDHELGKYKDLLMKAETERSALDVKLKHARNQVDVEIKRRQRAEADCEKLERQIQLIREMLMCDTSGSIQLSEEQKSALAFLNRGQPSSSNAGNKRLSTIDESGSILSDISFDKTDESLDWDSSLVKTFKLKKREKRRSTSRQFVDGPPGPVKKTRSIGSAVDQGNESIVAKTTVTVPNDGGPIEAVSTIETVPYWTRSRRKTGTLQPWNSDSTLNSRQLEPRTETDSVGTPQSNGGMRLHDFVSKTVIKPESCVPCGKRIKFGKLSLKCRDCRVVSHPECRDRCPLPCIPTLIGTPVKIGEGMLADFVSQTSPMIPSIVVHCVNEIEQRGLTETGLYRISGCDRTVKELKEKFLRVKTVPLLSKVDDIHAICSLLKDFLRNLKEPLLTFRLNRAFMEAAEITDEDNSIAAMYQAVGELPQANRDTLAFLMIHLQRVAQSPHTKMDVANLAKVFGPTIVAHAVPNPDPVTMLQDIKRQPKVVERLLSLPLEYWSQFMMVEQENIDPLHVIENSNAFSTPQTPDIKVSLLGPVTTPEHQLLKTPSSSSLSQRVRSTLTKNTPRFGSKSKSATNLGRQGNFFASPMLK

CC(C)NC[C@H](O)c1ccc(O)c(O)c1
IC50 [1]: 4.17e-05 µM (inconclusive)

CN(CCC#N)c1ncnc2scc(-c3ccccc3)c12
IC50 [1]: 12.3 µM (active)

CCOc1ccc(OCC(=O)Nc2ccc(OC)cc2)cc1
IC50 (cells): 26.4 µM (active)

CCCCn1c(S)nnc1-c1csc2c1CCC(C)C2 (stereo not given)
IC50 [2]: 18.2 µM (not active)

CC(C)Cn1c(N)c(C(=O)COC(=O)c2cccc(Cl)c2)c(=O)n(C)c1=O
IC50 [2]: 6.14 µM (active)

COc1ccc(-[n+]2c(-c3ccc(Br)cc3)cn3c2SC(C)C3)cc1 (stereo not given)
EC50 [3]: > 160 µM (inactive)
EC50 [4]: > 30 µM (not active)
EC50 [5]: 684 nM (active)
EC50 [6]: 2.96 µM (active)

CC(C)C[C@H](NC(=O)c1[nH]cnc1C(=O)NCc1ccccc1)C(=O)OC(C)(C)C
IC50 [2]: 10.8 µM (not active)

CCCS(=O)(=O)N1CCCC(C(=O)NCCCN(CC)c2cccc(C)c2)C1 (stereo not given)
AC50 [7]: 1.48 µM (active)
EC50 [8]: > 53 µM (inactive)
IC50 [9]: > 47.1 µM (inactive)

CCN1CCn2c3c(c4cc(Cl)ccc42)CCCC31 (stereo not given)
IC50 [1]: 3.31 µM (active)

CC(C)(C)CC(C)(C)N=C(S)Nc1ccc2nc(-c3ccccn3)c(-c3ccccn3)nc2c1
IC50 [1]: 26.3 µM (active)

Cc1cc(NC(=S)N(Cc2cccc(Br)c2)CC2CCC(C(=O)O)CC2)ccc1Cl (stereo not given)
IC50 [2]: 11.3 µM (not active)

CCN1CCn2c3c(c4cccc(C)c42)CCCC31 (stereo not given)
IC50 [1]: 14.5 µM (active)

Cc1cc2cc(CN(Cc3ccco3)S(=O)(=O)c3c(C)ccc4nsnc34)c(O)nc2cc1C
AC50 (HEK293): 0.968 µM (active)

CCOC(=O)CCCNC(=O)COC(=O)c1cc(Br)c(Br)s1
IC50 (cells): 13.2 µM (active)

CCCNC(=O)c1c(CSc2ccccc2)noc1C(=O)NCc1ccccc1
IC50 [2]: 3.24 µM (not active)

CCCCN(CCCC)C(=O)/C=C/c1cccc([N+](=O)[O-])c1
IC50 [2]: 19.4 µM (not active)

C=CC[C@@H]1C=C(C)C[C@H](C)C[C@H](OC)[C@H]2O[C@@](O)(C(=O)C(=O)N3CCCC[C@H]3C(=O)O[C@H](/C(C)=C/[C@@H]3CC[C@@H](O)[C@H](OC)C3)[C@H](C)[C@@H](O)CC1=O)[C@H](C)C[C@@H]2OC
EC50 [3]: > 160 µM (inactive)
EC50 [6]: 0.035 µM (active)

CCN1C/C(=C/c2ccc(N3CCOCC3)cc2)C(=O)/C(=C/c2ccc(N3CCOCC3)cc2)C1
EC50 (BJ [10]): 7.89 µM (active)
EC50 (BJ [11]): 11 µM (inconclusive)
EC50 [12]: 5.96 µM (active)
EC50 (BJ [13]): 5.64 µM (active)

CCC(NC(=O)CCc1nnc(-c2cc(C)on2)o1)C12CC3CC(CC(C3)C1)C2 (stereo not given)
IC50 [1]: 14.5 µM (active)

Cc1cc(NC(=O)CSc2nc(-c3ccco3)cc(C(F)(F)F)n2)n(-c2ccccc2)n1
EC50 (BJ [10]): 17.6 µM (inconclusive)
EC50 (BJ [11]): 64.5 µM (inconclusive)
EC50 [12]: 14.9 µM (active)
EC50 (BJ [13]): > 75 µM (not active)

O=C1C2CCCN2c2ccc(S(=O)(=O)N3CCOCC3)cc2N1Cc1ccccc1F (stereo not given)
AC50 (HEK293): > 350 µM (inactive)

COc1cccc(C(=O)O/N=C(\N)c2ccccn2)c1OC
AC50 (HEK293): 2.67 µM (active)

Cc1cccc(/C=C/C(=O)c2ccc(N3CCOCC3)cc2)c1
IC50 [2]: 15.7 µM (not active)

O=C(NNc1cc(Cl)cc(Cl)c1)c1cccs1
IC50 [1]: 16.2 µM (active)

O=C(O)c1cccc(S(=O)(=O)Nc2ccc(N3CCCCC3)cc2)c1
AC50 [7]: 1.75 µM (active)

NS(=O)(=O)c1ccc(NNC(=O)c2ccc(Br)o2)c([N+](=O)[O-])c1
AC50 [7]: 8.06 µM (active)

COc1ccc(/C=N/Nc2cc(OC)ncn2)cc1
EC50 [14]: > 260 µM (inactive)
EC50 [15]: 5.24 µM (active)
AC50 (HEK293): 11.2 µM (active)
EC50 [16]: 6.11 µM (active)

O=C(O/N=C1\CCS(=O)(=O)c2sccc21)c1ccc(F)cc1
IC50 [2]: < 0.4 µM (not active)

C/C(CC(=O)Nc1ccc(N(C)C)cc1)=N\NC(=O)c1ccc([N+](=O)[O-])cc1
AC50 [7]: 5.09 µM (active)
IC50 [17]: 62.3 µM (active)
